Experimental data reported in article PMC11488110 (Theranostics, 2024).
“Also recorded” adds a separate entry of the source.

What was measured:
CYP1A2 = molecular target: T1, CYP1A2 (Homo sapiens, UniProt P05177); experiment: CYP inhibition assay, human liver microsomes; assay type: in vitro ADME
T1 construct: performed using 0.25 mg/mL human liver microsomes; from tissue; host or cells: human liver microsomes
T1 sequence (P05177 1-516): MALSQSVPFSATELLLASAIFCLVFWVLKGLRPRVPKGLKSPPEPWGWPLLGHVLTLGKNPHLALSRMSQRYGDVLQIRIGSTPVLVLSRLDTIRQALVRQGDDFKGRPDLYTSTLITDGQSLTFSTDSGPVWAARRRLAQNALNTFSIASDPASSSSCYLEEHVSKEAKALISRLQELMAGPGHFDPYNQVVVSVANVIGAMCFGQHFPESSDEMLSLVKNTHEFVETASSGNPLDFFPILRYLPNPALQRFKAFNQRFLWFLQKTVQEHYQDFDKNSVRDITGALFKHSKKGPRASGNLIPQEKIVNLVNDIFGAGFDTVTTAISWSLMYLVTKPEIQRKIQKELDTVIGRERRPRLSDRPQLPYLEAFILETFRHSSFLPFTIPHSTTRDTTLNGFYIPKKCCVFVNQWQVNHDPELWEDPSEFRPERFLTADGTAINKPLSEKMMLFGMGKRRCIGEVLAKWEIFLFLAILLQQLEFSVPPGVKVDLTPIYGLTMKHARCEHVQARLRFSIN
Description: (§1) All incubations were performed in duplicate, and the mean values were used for analysis. Cocktail incubations were carried out using […] probe substrates of CYP1A2, CYP2C9, CYP2C19, CYP2D6, and CYP3A4: phenacetin, tolbutamide, mephenytoin, dextromethorphan and midazolam respectively, followed by tandem mass spectrometry. Briefly, an incubation reaction was performed using 0.25 mg/mL human liver microsomes in a final incubation volume of 100 μL. The incubation medium contained 100 mM phosphate buffer (pH 7.4) and probe substrates. The incubation mixture containing various inhibitors (10 μM) was pre-incubated for 5 min. After pre-incubation, an NADPH-regenerating system was added. After incubation at 37 °C for 15 min, the reaction was stopped by placing the incubation tubes on ice and adding 40 μL of ice-cold acetonitrile. The incubation mixtures were centrifuged at 10,000 g and 4 °C for 5 min. Aliquots of the supernatant were injected onto an LC-MS/MS system. The CYP-mediated activities in the presence of inhibitors were expressed as a percentage of the corresponding control value.
(§2) Ta b l e S2 . CYP inhibition, microsomal stability, and hERG in hibition of 5a .
(§3) CYP inhibitiona Microsomal stabilityb
(§4) ( % of c ont rol ac ti vit y) (% of remaining compound) hERG inhibitionc (IC50, μ M) […]
(§5) aCytochrome P450 (CYP450) enzyme activity was measured by incubating CYP450 enzyme isotype-specific substrates and liver microsomes in the presence of the test compound (10 μM) for 15 min. Data are expressed as percent of CYP enzyme activity relative to that of t he v ehicle-treated control. […]
(§6) a- cThe results of these three assays were obtained through the in vitro ADME/Tox study service of KMEDIhub, a contract research organization (CRO). The reported measurements are the mean of […]

CYP2C19 = molecular target: T2, CYP2C19 (Homo sapiens, UniProt P33261); experiment: CYP inhibition assay, human liver microsomes; assay type: in vitro ADME
T2 construct: performed using 0.25 mg/mL human liver microsomes; from tissue; host or cells: human liver microsomes
Description: as §1, §2, §3, §4, §5, §6

CYP3A4 = molecular target: T3, CYP3A4 (Homo sapiens, UniProt P08684); experiment: CYP inhibition assay, human liver microsomes; assay type: in vitro ADME
T3 construct: performed using 0.25 mg/mL human liver microsomes; from tissue; host or cells: human liver microsomes
Description: as §1, §2, §3, §4, §5, §6

CYP2D6 = molecular target: T4, CYP2D6 (Homo sapiens, UniProt P10635); experiment: CYP inhibition assay, human liver microsomes; assay type: in vitro ADME
T4 construct: performed using 0.25 mg/mL human liver microsomes; from tissue; host or cells: human liver microsomes
Description: as §1, §2, §3, §4, §5, §6

CYP2C9 = molecular target: T5, CYP2C9 (Homo sapiens, UniProt P11712); experiment: CYP inhibition assay, human liver microsomes; assay type: in vitro ADME
T5 construct: performed using 0.25 mg/mL human liver microsomes; from tissue; host or cells: human liver microsomes
Description: as §1, §2, §3, §4, §5, §6

[1] = Metabolic stability assay in liver microsomes; assay type: in vitro ADME, dog; conditions: 1 μM, 30 min
Description: The metabolic stability assay was performed by incubation of human and selected animal liver microsomes (dog, rat, and mouse) with the test compound at a final concentration of 1 μM, in the presence of 0.5 mg/ml microsomal protein and NADPH-regeneration system, in a total volume of 100 μL phosphate buffer 100 mM (pH 7.4) at 37 °C. The incubation was started by introducing the NADPH-regeneration system and terminated by adding 40 μL of ice-cold acetonitrile at 0- and 30 min. Precipitated proteins were removed by centrifugation at 10,000 g and 4 °C for 5 min. Aliquots of the supernatant were injected onto an LC-MS/MS system. Incubations terminated prior to addition of the NADPH-regeneration system (time point, 0 min) were used as standards, defined as 100%. Percent of the parent compound remaining was calculated by comparing peak areas.
as §2, §3, §4
aCytochrome P450 (CYP450) enzyme activity was measured by incubating CYP450 enzyme isotype-specific substrates and liver microsomes in the presence of the test compound (10 μM) for 15 min. […]

[2] = system: Salmonella typhimurium TA100; experiment: Ames MPF mutagenicity assay, TA100; assay type: cell-based
Description: An Ames microplate format (MPF) 98/100 mutagenesis assay kit (Xenometrix) was used to test mutagenic activity. The TA98 / TA100 Salmonella strain was inoculated into the bacterial culture medium and cultured overnight. The Salmonella test strain was then exposed to six concentrations of the test compound (plus positive and negative controls). Samples were prepared in 96-well plates in sterile DMSO. The cultured bacteria, test compound, and S9 mixture were incubated for 90 min at 37 °C in a shaking incubator. The mixture was then treated with an indicator medium and dispensed into 384-well plates. The plates were incubated at 37 °C for 48 h. The number of wells containing revertant colonies was counted for each dose.
Ta b l e S4 . Tw o -strain Ames mutagenic assess ment of 5a.
Straina Activity in the absence (-) of S9b Activity in the presence (+) of S9b TA 9 8 Negative (-) Negative (-)
TA 1 0 0 Negative (-) Negative (-) aSalmonella typhimurium strains TA98 (hi s D3052 mutation) and TA100 (hisG46 mutation) were used to detect frameshift mutations and base- pair substitution mutations, respectively. bAroclor 1254- induced rat liver S9 fraction for exogenous metabolic activation.

[3] = 10 μM, 15 min, human liver microsomes
[4] = stated for the five CYP subtypes, tested at 10 µM

T3 sequence (P08684 whole entry): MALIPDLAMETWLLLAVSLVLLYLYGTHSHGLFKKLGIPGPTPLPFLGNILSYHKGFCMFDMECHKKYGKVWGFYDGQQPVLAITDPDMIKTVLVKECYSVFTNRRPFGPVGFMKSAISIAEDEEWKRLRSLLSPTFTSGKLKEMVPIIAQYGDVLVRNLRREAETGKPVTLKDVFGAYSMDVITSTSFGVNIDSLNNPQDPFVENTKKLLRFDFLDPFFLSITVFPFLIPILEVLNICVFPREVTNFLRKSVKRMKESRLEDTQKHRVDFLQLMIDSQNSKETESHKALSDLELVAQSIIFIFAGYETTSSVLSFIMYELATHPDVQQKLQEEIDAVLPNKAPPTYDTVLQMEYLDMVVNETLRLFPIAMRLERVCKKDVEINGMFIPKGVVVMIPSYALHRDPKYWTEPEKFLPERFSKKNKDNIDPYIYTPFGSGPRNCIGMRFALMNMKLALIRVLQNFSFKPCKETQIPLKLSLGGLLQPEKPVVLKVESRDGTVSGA
T4 sequence (P10635 whole entry): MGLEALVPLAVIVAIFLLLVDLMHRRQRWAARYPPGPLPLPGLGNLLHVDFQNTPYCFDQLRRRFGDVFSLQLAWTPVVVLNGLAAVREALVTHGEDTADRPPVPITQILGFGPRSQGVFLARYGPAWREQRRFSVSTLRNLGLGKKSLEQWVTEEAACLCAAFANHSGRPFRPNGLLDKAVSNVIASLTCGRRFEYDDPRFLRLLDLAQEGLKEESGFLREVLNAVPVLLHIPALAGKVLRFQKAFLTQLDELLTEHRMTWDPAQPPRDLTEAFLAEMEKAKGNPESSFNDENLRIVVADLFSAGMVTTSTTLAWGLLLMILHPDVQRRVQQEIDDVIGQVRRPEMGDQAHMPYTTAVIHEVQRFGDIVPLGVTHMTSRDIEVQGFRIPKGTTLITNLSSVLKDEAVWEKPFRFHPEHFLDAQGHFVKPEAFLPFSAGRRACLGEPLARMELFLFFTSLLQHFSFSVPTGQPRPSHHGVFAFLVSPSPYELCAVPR
T5 sequence (P11712 whole entry): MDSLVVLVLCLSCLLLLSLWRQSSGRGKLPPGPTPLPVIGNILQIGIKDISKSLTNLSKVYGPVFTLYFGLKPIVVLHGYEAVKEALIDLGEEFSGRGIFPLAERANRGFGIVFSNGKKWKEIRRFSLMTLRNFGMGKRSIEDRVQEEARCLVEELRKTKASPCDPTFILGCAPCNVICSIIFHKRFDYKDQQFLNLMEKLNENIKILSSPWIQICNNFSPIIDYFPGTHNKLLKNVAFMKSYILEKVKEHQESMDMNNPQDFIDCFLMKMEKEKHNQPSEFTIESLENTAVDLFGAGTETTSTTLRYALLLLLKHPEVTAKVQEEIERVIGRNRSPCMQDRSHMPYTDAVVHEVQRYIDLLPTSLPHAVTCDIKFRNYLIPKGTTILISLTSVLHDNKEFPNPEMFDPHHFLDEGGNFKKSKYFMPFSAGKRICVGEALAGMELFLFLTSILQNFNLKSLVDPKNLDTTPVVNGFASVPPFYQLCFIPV
T2 sequence (P33261 whole entry): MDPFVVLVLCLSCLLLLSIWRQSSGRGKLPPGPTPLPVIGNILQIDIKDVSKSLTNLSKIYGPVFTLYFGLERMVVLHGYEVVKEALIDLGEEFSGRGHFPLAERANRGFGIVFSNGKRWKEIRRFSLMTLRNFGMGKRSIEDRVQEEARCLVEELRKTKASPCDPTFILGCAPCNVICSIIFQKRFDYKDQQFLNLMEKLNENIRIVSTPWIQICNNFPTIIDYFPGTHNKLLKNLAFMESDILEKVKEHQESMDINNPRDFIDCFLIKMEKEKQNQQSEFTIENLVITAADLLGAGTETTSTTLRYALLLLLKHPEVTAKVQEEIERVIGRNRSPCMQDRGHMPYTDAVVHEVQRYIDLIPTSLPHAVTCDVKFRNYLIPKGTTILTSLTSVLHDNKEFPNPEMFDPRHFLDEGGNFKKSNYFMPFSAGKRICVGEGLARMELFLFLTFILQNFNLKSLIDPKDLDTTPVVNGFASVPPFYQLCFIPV

Question: With `Cc1cc(SCc2[se]c(-c3ccc(C(F)(F)F)cc3)nc2C)ccc1OCC(=O)O` [Compound 5a, {2-Methyl-4-[4-methyl-2-(4-trifluoromethyl-phenyl)-selenazol-5-yl-methylsulfanyl]-phenoxy}-acetic acid] as the compound, how does the “CYP inhibition 1A2 (% of control activity)” value (CYP1A2; [3]) read?
Answer: Its value is 78.1 % of control activity.

Question: And the IC50 (CYP1A2; [4])?
Answer: Its IC50 is greater than 10 µM.

Question: And the “CYP inhibition 2C19 (% of control activity)” value (CYP2C19; [3])?
Answer: Its value is 88.6 % of control activity.

Question: What about the IC50 (CYP2C19; [4]) of the same compound?
Answer: The IC50 was greater than 10 µM.

Question: What about the “CYP inhibition 3A4 (% of control activity)” value (CYP3A4; [3]) of the same compound?
Answer: The value was 94.9 % of control activity.

Question: And the IC50 (CYP3A4; [4])?
Answer: The IC50 was greater than 10 µM.

Question: What about the “CYP inhibition 2D6 (% of control activity)” value (CYP2D6; [3]) of the same compound?
Answer: Its value is 92.1 % of control activity.

Question: What about the IC50 (CYP2D6; [4]) of the same compound?
Answer: The IC50 was greater than 10 µM.

Question: And the “CYP inhibition 2C9 (% of control activity)” value (CYP2C9; [3])?
Answer: Its value is 63.6 % of control activity.

Question: And the IC50 (CYP2C9; [4])?
Answer: Its IC50 is greater than 10 µM.

Question: And the “Microsomal stability, Dog (% of remaining compound)” value [1]?
Answer: Its value is 91.3 % of remaining compound.

Question: What about the “Ames mutagenic activity in the presence (+) of S9” value ([2]; TA100, with rat liver S9) of the same compound?
Answer: The value was “Negative (-); also recorded: lacks mutagenicity”.

Question: And the “Ames mutagenic activity in the absence (-) of S9” value ([2]; TA100, without S9)?
Answer: The value was “Negative (-); also recorded: lacks mutagenicity”.
